Data on 4 molecules can be found in patent US6124327A, “HIV integrase inhibitors” (Merck & Co., Inc., priority 1998, dated 2000).

Bounds are passed on as bounds.

In one test the target is T1, HIV-1 integrase (Human immunodeficiency virus type 1 group M subtype B, UniProt P04585).
T1 construct: HIV-1 integrase
Description: HIV Integrase Substrate Cleavage (endonucleolytic processing and joining of the 3' end of HIV long terminal repeat terminus; coupled reaction). It counts as biochemical. As to conditions: inhibitor at various concentrations in the range of 1 to 100 μM. The protocol: HIV Integrase Substrate Cleavage
As assay for endonucleolytic processing and joining of the 3' end of HIV long terminal repeat terminus by HIV-1 integrase was conducted according to Hazuda, et al., Nud. Acids Res., 22, 1121 (1994), herein incorporated by reference for these purposes. To assay inhibition of the coupled reaction, the assay was conducted with inhibitor having various concentrations in the range of 1 to 100 μM.

Another test deals with T2, HIV integrase (Human immunodeficiency virus type 1 group M subtype B, UniProt P04585).
T2 construct: HIV integrase
Description: Strand Transfer Assay for HIV Integrase (microtiter assay, processed donor (HIV) DNA to nonspecific, nicked target DNA). It counts as biochemical. To be noted: inhibitor at various concentrations in the range of 1 to 100 μM. The procedure: Strand Transfer Assay for HIV Integrase
A microtiter assay for strand transfer of processed donor (HIV) DNA to nonspecific, nicked target DNA was conducted according to Wolfe, et al., J. Virol., 70, 1424 (1996), herein incorporated by reference for these purposes. To assay inhibition of such strand transfer by HIV integrase, the reaction was conducted with inhibitor having various concentrations in the range of 1 to 100 μM.

Consider `CCCC(O)CCCCCCCc1cc(O)cc(O)c1C(=O)OC(CCC)CCCCCCCc1cc(O)cc(O)c1` (centres unmarked) [Compound B], for which the IC50 stood at 6.1 µM against HIV-1 integrase and 17 µM against HIV integrase.

As for `CCC/C=C/CCCCCCc1cc(O)cc(O)c1C(=O)OC(CCC)CCCCCCCc1cc(O)cc(O)c1` (centres unmarked) [Compound C], the IC50 is 3.5 µM on HIV-1 integrase and more than 88 µM on HIV integrase.

For `CCCC(CCCCCCCc1cc(O)cc(O)c1C(=O)OC(CCC)CCCCCCCc1cc(O)cc(O)c1)OC(C)=O` (centres unmarked) [Compound A], the IC50 at HIV-1 integrase came to 3.2 µM; at HIV integrase, 32 µM.

As to `CCCC(O)CCCCCCCc1cc(O)cc(O)c1` (centres unmarked) [Compound D], the IC50 is 93 µM on HIV-1 integrase and more than 100 µM at HIV integrase.
